Type in all cases: cell-based
Experiment [1] deals with A431 (EGFR-WT). Nature of the experiment: Proliferation experiment, A431 cell line (CellTiter-Glo). Conditions: Homo sapiens, A-431; A431 cells, cultured for 72 hrs with compound, CTG analysis. How it is done:
[The procedure below names another cell line; the source lists this cell line under the same test.] (§1) Proliferation Experiment of Ba/F3 Cell Line
(§2) (I) Reagents and Materials
(§3) • Fetal bovine serum FBS (GBICO, Cat #10099-141); • CellTiter-Glo® luminescent cell viability assay kit (Promega, Cat #G7572); • Black transparent flat-bottom 96 well plate (Corning®, Cat #3603). (II) Instruments • SpectraMax multi-label microplate reader MD, 2104-0010A; • Carbon dioxide incubator, Thermo Scientific 3100 series; • Biological safety cabinet, Thermo Scientific, 1300 series model A2; • Inverted microscope, Olympus, CKX41SF; • Siemens refrigerator KK25E76TI. (III) Cell Lines and Culture Conditions
(§4) (IV) Experimental Procedures 1. Cell Culture and Inoculation: • (1) Cells in the logarithmic growth phase were harvested and counted using a […]. Cell viability was detected by Trypan Blue Dye Exclusion Method to ensure cell viability above 90%. • (2) The cell concentration was adjusted to reach a desired final density; 90 μL of cell suspension was added to the 96-well plate. • (3) The cells were incubated overnight in the 96-well plate at 37° C., 5% CO2 and at 95% humidity.
(§5) 2. T0 Reference Data: • (1) 10 μL PBS was added to each well of the TO plate containing the cells. • (2) The CTG reagent was thawed and the cell plate was equilibrated to room temperature for 30 min. • (3) An equal volume of CTG solution was added to each well. • (4) The cells were lysed by shaking on an orbital shaker for 5 min. • (5) The cell plate was left at room temperature for 20 min to stabilize the luminescence signal. • (6) The fluorescence signal values of TO were read. 3. Dilution and Addition of Compounds • (1) According to the compound information table, a corresponding volume of DMSO was added to the corresponding compound powder to prepare a 10 mM stock solution. • (2) A 1000-fold, 3.16-fold-diluted compound solution was prepared. • (3) The 1000× diluted compound solution was diluted 100-fold with PBS to prepare a 10-fold compound solution with a maximum concentration of […], including 9 concentrations, with 3.16-fold dilution, and 10 μL of the medicament solution was added to each well of the 96-well plate to seed the cells. Triplicate wells were set for each compound concentration, with a final concentration of DMSO being 0.1%. • (4) The cells were placed in the 96-well plate filled with the medicament at 37° C., 5% CO2 and at 95% humidity, and cultured for 72 hrs before CTG analysis. 4. Fluorescence Signal Reading • (1) The CTG reagent was thawed and the cell plate was equilibrated to room temperature for 30 min. • (2) An equal volume of CTG solution was added to each well. • (3) The cells were lysed by shaking on an orbital shaker for 5 min. • (4) The cell plate was left at room temperature for 20 min to stabilize the fluorescence signal. • (5) The fluorescence values were read. 5. Data Processing
(§6) Data were analyzed using GraphPad Prism 7.0 software and fitted data were regressed using non-linear S-curves to obtain dose-response curves from which IC50 values (in nM) were calculated.
Background: Cellular ATP, detected with luciferase, serves as a proxy for viable cell number.

The target in experiment [2] is Ba/F3 EGFR-D770-N771ins_SVD (Homo sapiens, UniProt P00533, DUP768-770, cells depend on it). Nature of the experiment: Proliferation experiment of Ba/F3 cell line, EGFR-D770-N771ins_SVD (CellTiter-Glo). Conditions: cultured for 72 hrs with compound, CTG analysis, read-out: Ba/F3 EGFR-D770-N771ins_SVD IC50. As to the method: as §1, §2, §3, §4, §5, §6
Sequence of Ba/F3 EGFR-D770-N771ins_SVD (P00533 with tags, fused parts or gaps DUP768-770): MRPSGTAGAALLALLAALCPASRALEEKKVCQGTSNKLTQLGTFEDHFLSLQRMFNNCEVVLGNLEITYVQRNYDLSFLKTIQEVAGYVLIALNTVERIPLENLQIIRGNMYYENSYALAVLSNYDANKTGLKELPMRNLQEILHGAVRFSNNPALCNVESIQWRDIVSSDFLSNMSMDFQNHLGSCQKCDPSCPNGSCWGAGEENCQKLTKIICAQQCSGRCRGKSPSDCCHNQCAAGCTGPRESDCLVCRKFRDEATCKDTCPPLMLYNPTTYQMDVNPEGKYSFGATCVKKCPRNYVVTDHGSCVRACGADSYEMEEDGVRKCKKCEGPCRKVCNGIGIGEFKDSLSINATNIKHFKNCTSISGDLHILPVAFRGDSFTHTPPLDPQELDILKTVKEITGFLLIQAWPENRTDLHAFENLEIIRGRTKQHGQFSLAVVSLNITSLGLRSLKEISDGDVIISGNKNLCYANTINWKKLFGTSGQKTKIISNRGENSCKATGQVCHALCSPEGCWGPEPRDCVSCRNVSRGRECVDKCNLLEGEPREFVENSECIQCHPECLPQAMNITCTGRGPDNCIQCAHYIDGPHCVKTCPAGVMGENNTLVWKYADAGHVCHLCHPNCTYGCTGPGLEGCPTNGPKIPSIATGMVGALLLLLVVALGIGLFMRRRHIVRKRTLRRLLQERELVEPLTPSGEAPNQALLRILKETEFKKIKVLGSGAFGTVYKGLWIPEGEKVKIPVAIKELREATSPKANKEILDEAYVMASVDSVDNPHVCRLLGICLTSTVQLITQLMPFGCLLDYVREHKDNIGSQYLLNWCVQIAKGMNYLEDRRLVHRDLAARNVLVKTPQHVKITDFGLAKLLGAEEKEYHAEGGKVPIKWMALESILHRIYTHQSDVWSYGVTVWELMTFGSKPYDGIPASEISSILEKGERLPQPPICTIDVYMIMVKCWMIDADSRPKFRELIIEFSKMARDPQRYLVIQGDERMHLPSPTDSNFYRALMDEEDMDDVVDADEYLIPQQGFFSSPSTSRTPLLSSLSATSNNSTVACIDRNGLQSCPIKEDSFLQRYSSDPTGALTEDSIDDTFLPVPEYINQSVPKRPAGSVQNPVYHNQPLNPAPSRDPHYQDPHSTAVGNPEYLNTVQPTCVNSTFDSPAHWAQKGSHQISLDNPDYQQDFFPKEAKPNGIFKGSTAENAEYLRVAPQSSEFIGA
In experiment [3] the target is Ba/F3 EGFR-V769_D770insASV (Homo sapiens, UniProt P00533, DUP767-769, cells depend on it). Nature of the experiment: Proliferation experiment of Ba/F3 cell line, EGFR-V769_D770insASV (CellTiter-Glo). Conditions: cultured for 72 hrs with compound, CTG analysis, read-out: Ba/F3 EGFR-V769_D770insASV IC50. As to the method:
as §1, §2, §3, §4, §5, §6

Sequence of Ba/F3 EGFR-V769_D770insASV (P00533 with tags, fused parts or gaps DUP767-769): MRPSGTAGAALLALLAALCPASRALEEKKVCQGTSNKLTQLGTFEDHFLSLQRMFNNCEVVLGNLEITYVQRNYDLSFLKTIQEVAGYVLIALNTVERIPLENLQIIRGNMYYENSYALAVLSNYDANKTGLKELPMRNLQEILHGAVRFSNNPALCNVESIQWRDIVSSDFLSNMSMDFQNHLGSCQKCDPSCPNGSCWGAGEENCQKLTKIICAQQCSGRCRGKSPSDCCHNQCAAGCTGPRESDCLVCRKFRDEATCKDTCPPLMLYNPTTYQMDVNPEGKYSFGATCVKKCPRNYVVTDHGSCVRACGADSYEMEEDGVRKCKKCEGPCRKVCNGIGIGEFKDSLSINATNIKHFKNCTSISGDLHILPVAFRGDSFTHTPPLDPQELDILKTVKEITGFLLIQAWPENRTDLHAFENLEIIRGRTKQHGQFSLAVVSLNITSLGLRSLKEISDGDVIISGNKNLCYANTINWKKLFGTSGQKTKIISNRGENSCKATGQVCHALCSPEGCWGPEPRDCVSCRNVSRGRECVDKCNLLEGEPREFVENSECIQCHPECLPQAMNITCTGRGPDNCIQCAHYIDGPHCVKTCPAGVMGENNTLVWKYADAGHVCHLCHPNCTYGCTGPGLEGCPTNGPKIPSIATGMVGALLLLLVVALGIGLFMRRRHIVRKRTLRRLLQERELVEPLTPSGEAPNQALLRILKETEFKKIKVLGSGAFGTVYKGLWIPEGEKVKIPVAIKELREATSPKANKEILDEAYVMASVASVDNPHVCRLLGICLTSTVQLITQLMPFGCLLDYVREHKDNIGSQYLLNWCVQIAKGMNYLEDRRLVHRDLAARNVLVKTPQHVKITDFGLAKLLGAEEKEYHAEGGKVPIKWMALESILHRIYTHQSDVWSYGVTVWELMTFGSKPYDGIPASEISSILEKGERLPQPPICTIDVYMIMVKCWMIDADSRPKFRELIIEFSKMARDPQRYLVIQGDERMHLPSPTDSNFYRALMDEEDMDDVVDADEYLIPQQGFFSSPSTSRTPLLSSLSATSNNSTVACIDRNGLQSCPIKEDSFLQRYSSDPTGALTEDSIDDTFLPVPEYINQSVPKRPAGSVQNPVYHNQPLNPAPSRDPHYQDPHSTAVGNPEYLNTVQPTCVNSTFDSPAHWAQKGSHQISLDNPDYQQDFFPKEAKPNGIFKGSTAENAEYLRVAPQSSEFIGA

By IC50 is commonly meant the concentration that gives 50% inhibition. With `C=CC(=O)Nc1cc2c(Nc3cccc(-c4c(F)cccc4F)c3)ncnc2cc1OCCCN1CCN(C(C)C)CC1` [Example 22, N-(4-((2′,6′-difluoro-[1,1′-biphenyl]-3-yl)amino)-7-(3-(4-isopropylpiperazin-1-yl)propoxy)quinazolin-6-yl)acrylamide], the IC50 in experiment [1] worked out at 270 nM. The GI50 turned out to be 13.7 nM in experiment [2] and 30.6 nM in experiment [3].

Consider `C=CC(=O)Nc1cc2c(Nc3cccc(-c4c(F)cc(F)cc4F)c3)ncnc2cc1OCCCN1CCOCC1` [Example 25, N-(7-(3-morpholinopropoxy)-4-((2′,4′,6′-trifluoro-[1,1′-biphenyl]-3-yl)amino)quinazolin-6-yl)acrylamide], for which the IC50 in experiment [1] was 352 nM. The GI50 in experiment [2] worked out at 33.9 nM; in experiment [3] it was 106 nM.

As for `C=CC(=O)Nc1cc2c(Nc3cccc(-c4c(F)cccc4F)c3)ncnc2cc1OCCN1CCOCC1` [Example 26, N-(4-((2′,6′-difluoro-[1,1′-biphenyl]-3-yl)amino)-7-(2-morpholinoethoxy)quinazolin-6-yl)acrylamide], in experiment [1], the IC50 was 33.4 nM. For the same compound, the GI50 worked out at 52.1 nM in experiment [2] and 97.4 nM in experiment [3].

With `C=CC(=O)Nc1cc2c(Nc3cccc(-c4c(F)cccc4F)c3)ncnc2cc1OCCCN1CCOCC1` [Example 27, N-(4-((2′,6′-difluoro-[1,1′-biphenyl]-3-yl)amino)-7-(3-morpholinopropoxy)quinazolin-6-yl)acrylamide], the half-maximal inhibitory concentration (IC50) in experiment [1] amounted to 204 nM. In addition, the values for the GI50 in experiment [2] and in experiment [3] were 15.2 nM and 44.3 nM, respectively.

As for `C=CC(=O)Nc1cc2c(Nc3cccc(-c4c(F)cccc4F)c3)ncnc2cc1OCCCN1CCN(CC)CC1` [Example 28, N-(4-((2′,6′-difluoro-[1,1′-biphenyl]-3-yl)amino)-7-(3-(4-ethylpiperazin-1-yl)propoxy)quinazolin-6-yl)acrylamide], the IC50 in experiment [1] was 362 nM. The figures for the GI50 in experiment [2] and in experiment [3] were 22.6 nM and 21 nM, respectively.

Take `C=CC(=O)Nc1cc2c(Nc3cccc(-c4c(F)cccc4F)c3)ncnc2cc1OCCCN1CCN(C2CC2)CC1` [Example 29, N-(7-(3-(4-cyclopropylpiperazin-1-yl)propoxy)-4-((2′,6′-difluoro-[1,1′-biphenyl]-3-yl)amino)quinazolin-6-yl)acrylamide]: the IC50 in experiment [1] stood at 51.8 nM. Further, the GI50 worked out at 37 nM in experiment [2] and 44.6 nM in experiment [3].

In the case of `C=CC(=O)Nc1cc2c(Nc3cccc(-c4c(F)cccc4F)c3)ncnc2cc1OCCCN1CCN(C2COC2)CC1` [Example 30, N-(4-((2′,6′-difluoro-[1,1′-biphenyl]-3-yl)amino)-7-(3-(4-(oxetan-3-yl)piperazin-1-yl)propoxy)quinazolin-6-yl)acrylamide], the IC50 in experiment [1] was determined as 68.1 nM. Besides, the results for the GI50 in experiment [2] and in experiment [3] were 25.3 nM and 54.1 nM, respectively.

In the case of `C=CC(=O)Nc1cc2c(Nc3cccc(-c4c(F)cccc4F)c3)ncnc2cc1OCCCN1CCN(CC(F)(F)F)CC1` [Example 31, N-(4-((2′,6′-difluoro-[1,1′-biphenyl]-3-yl)amino)-7-(3-(4-(2,2,2-trifluoroethyl)piperazin-1-yl)propoxy)quinazolin-6-yl)acrylamide], the IC50 in experiment [1] is 225 nM. The GI50 in experiment [2] was 68.2 nM; in experiment [3], 111 nM.

As for `C=CC(=O)Nc1cc2c(Nc3cccc(-c4c(F)cccc4F)c3)ncnc2cc1OCCCN1CCN(C)C(=O)C1` [Example 32, N-(4-((2′,6′-difluoro-[1,1′-biphenyl]-3-yl)amino)-7-(3-(4-methyl-3-oxopiperazin-1-yl)propoxy)quinazolin-6-yl)acrylamide], the IC50 in experiment [1] is 205 nM. Besides, the GI50 in experiment [2] turned out to be 35.9 nM; in experiment [3], 86.3 nM.

On to `C=CC(=O)Nc1cc2c(Nc3cccc(-c4c(F)cccc4F)c3)ncnc2cc1OCCCN1CCN(C)CC1=O` [Example 33, N-(4-((2′,6′-difluoro-[1,1′-biphenyl]-3-yl)amino)-7-(3-(4-methyl-2-oxopiperazin-1-yl)propoxy)quinazolin-6-yl)acrylamide], for which the IC50 in experiment [1] came to 458 nM. For the same compound, the GI50 turned out to be 38.3 nM in experiment [2] and 68.3 nM in experiment [3].

In the case of `C=CC(=O)Nc1cc2c(Nc3cccc(-c4c(F)cccc4F)c3)ncnc2cc1OCCCN1CC[C@@H](N(C)C)C1` [Example 34, (R)-N-(4-((2′,6′-difluoro-[1,1′-biphenyl]-3-yl)amino)-7-(3-(3-(dimethylamino)pyrrolidin-1-yl)propoxy)quinazolin-6-yl)acrylamide], the IC50 in experiment [1] was 260 nM. The GI50 in experiment [2] is 21.5 nM; in experiment [3], 33.1 nM.

Regarding `C=CC(=O)Nc1cc2c(Nc3cccc(-c4c(F)cccc4F)c3)ncnc2cc1OCCCN1CC[C@H](N(C)C)C1` [Example 35, (S)-N-(4-((2′,6′-difluoro-[1,1′-biphenyl]-3-yl)amino)-7-(3-(3-(dimethylamino)pyrrolidin-1-yl)propoxy)quinazolin-6-yl)acrylamide], in experiment [1], the half-maximal inhibitory concentration (IC50) amounted to 193 nM. The GI50 in experiment [2] worked out at 26.8 nM; in experiment [3], 35.6 nM.

Regarding `C=CC(=O)Nc1cc2c(Nc3cccc(-c4c(F)cccc4F)c3)ncnc2cc1OCCCN1CC(N(C)C)C1` [Example 36, N-(4-((2′,6′-difluoro-[1,1′-biphenyl]-3-yl)amino)-7-(3-(3-(dimethylamino)azetidin-1-yl)propoxy)quinazolin-6-yl)acrylamide], in experiment [1], the IC50 was found to be 235 nM. Further, the GI50 in experiment [2] came out at 32.3 nM; in experiment [3], 68.6 nM.

Take `C=CC(=O)Nc1cc2c(Nc3cccc(-c4c(F)cccc4F)c3)ncnc2cc1O[C@@H]1CCN(C)C1` [Example 37, (R)-N-(4-((2′,6′-difluoro-[1,1′-biphenyl]-3-yl)amino)-7-((1-methylpyrrolidin-3-yl)oxy)quinazolin-6-yl)acrylamide]: the IC50 in experiment [1] was 302 nM. Also, the values for the GI50 in experiment [2] and in experiment [3] were 31.6 nM and 47.5 nM, respectively.

As for `C=CC(=O)Nc1cc2c(Nc3ccc(F)c(-c4ccccc4F)c3)ncnc2cc1OCCCN1CCOCC1` [Example 38, N-(4-((2′,6-difluoro-[1,1′-biphenyl]-3-yl)amino)-7-(3-morpholinopropoxy)quinazolin-6-yl)acrylamide], the IC50 in experiment [1] is 431 nM. Besides, the GI50 in experiment [2] worked out at 23.6 nM; in experiment [3], 31.5 nM.

For `C=CC(=O)Nc1cc2c(Nc3ccc(F)c(-c4ccccc4F)c3)ncnc2cc1OCCCN1CCN(C)CC1` [Example 39, N-(4-((2′,6-difluoro-[1,1′-biphenyl]-3-yl)amino)-7-(3-(4-methylpiperazin-1-yl)propoxy)quinazolin-6-yl)acrylamide], the IC50 in experiment [1] was determined as 271 nM. For the same compound, the GI50 in experiment [2] stood at 18 nM; in experiment [3], 25.6 nM.

On to `C=CC(=O)Nc1cc2c(Nc3ccc(F)c(-c4c(F)cccc4F)c3)ncnc2cc1OCCCN1CCN(C)CC1` [Example 40, N-(7-(3-(4-methylpiperazin-1-yl)propoxy)-4-((2′,6,6′-trifluoro-[1,1′-biphenyl]-3-yl)amino)quinazolin-6-yl)acrylamide], for which the IC50 in experiment [1] was found to be 372 nM. Besides, the GI50 in experiment [2] is 15 nM; in experiment [3], 25.4 nM.

Consider `C=CC(=O)Nc1cc2c(Nc3ccc(F)c(-c4ccc(F)cc4)c3)ncnc2cc1OCCCN1CCOCC1` [Example 41, N-(4-((4′,6-difluoro-[1,1′-biphenyl]-3-yl)amino)-7-(3-morpholinopropoxy)quinazolin-6-yl)acrylamide], for which the concentration for half-maximal inhibition (IC50) in experiment [1] came to 927 nM. Also, the GI50 is 19.2 nM in experiment [2] and 36.5 nM in experiment [3].

For `C=CC(=O)Nc1cc2c(Nc3ccc(F)c(-c4ccc(F)cc4)c3)ncnc2cc1OCCCN1CCN(C)CC1` [Example 42, N-(4-((4′,6-difluoro-[1,1′-biphenyl]-3-yl)amino)-7-(3-(4-methylpiperazin-1-yl)propoxy)quinazolin-6-yl)acrylamide], the IC50 in experiment [1] was found to be 287 nM. Besides, the GI50 in experiment [2] is 31.8 nM; in experiment [3] it was 55.6 nM.

These data come from US12649727B2, “EFGR inhibitor, preparation method therefor and application thereof” (Abbisko Therapeutics Co., Ltd, priority 2020, dated 2026).
